The record followed here is ChEMBL document CHEMBL3045901, “Aryldiones incorporating a [1,4,5]oxadiazepane ring. Part 2: chemistry and biology of the cereal herbicide pinoxaden” (Pest Manag Sci, 2011).

One data set has as its system Alopecurus myosuroides. Nature of the data set: Herbicidal activity against Alopecurus myosuroides assessed as weed control at 30 g/ha under greenhouse measured after 21 days by post-emergence test. Type of data set: functional.
The subject of data set [1] is Lolium perenne. The data set can be described thus: Herbicidal activity against Lolium perenne (perennial ryegrass) assessed as weed control at 30 g/ha under greenhouse measured after 21 days by post-emergence test. Format: functional.
The next data set concerns Setaria faberi. The data set can be described thus: Herbicidal activity against Setaria faberi (Giant Foxtail) assessed as weed control at 30 g/ha under greenhouse measured after 21 days by post-emergence test. Format: functional.
The subject of data set [2] is Hordeum vulgare. The data set can be described thus: Herbicidal activity against Hordeum vulgare (barley) assessed as weed control at 30 g/ha under greenhouse measured after 21 days by post-emergence test. Format: functional.
For data set [3], the system named is Triticum aestivum. The data set can be described thus: Herbicidal activity against Triticum aestivum (wheat) assessed as weed control at 30 g/ha under greenhouse measured after 21 days by post-emergence test. Type of data set: functional.
Data set [4] deals with Avena fatua. The data set can be described thus: Herbicidal activity against Avena fatua assessed as weed control at 30 g/ha under greenhouse measured after 21 days by post-emergence test. Format: functional.
Data set [5] in a line: Lipophilicity, log P of the compound at pH7 at 20 degC. Type of data set: physicochemical. Particulars: buffer, pH 7.
The nature of data set [6]: Aqueous hydrolysis of the compound at pH 7 at 20 degC. Type of data set: physicochemical. The settings on record: aqueous solution, read-out: DT50 (converted).
Data set [7] is described as follows: Solubility in water at pH5 at 20 degC. Format: physicochemical. Particulars: pH 5.
Data set [8] is described as follows: Dissociation constant, pKa of the compound. Format: physicochemical.
Data set [9] can be described thus: Aqueous hydrolysis of the compound at pH 4 at 20 degC. Particulars: aqueous solution, read-out: DT50 (converted). Format: physicochemical.
A short description of data set [10]: Aqueous hydrolysis of the compound at pH 9 at 20 degC. Type of data set: physicochemical. The settings on record: aqueous solution, read-out: DT50 (converted).
Data set [11] in a line: Solubility in water at pH7 at 20 degC. Type of data set: physicochemical. The settings on record: pH 7.
Data set [12] can be described thus: Aqueous hydrolysis of the compound at pH 5 at 20 degC. Type of data set: physicochemical. The settings on record: aqueous solution, read-out: DT50 (converted).
Data set [13] is described as follows: Lipophilicity, log P of the compound at pH5 at 20 degC. Type of data set: physicochemical. The settings on record: buffer, pH 5.
A short description of data set [14]: Solubility in water at 25 degC. Format: physicochemical.
Data set [15] concerns Lolium perenne. The data set can be described thus: Drug level in Lolium perenne (perennial ryegrass) measured at 0.1 g/l after 6 hr in presence of safener cloquintocet-mexyl. Type of data set: ADME, organism-based. The settings on record: in vivo.
The test system of data set [16] is Hordeum vulgare. Nature of the data set: Drug metabolism in winter Hordeum vulgare cv. Manitou (barley) assessed as total inactive metabolites at 0.1 g/l measured after 16 hr. Format: ADME, organism-based. The settings on record: in vivo.
Data set [17] relates to Hordeum vulgare. Nature of the data set: Drug level in winter Hordeum vulgare cv. Manitou (barley) at 0.1 g/l measured after 6 hr in presence of safener cloquintocet-mexyl. Format: ADME, organism-based. Particulars: in vivo.
Data set [18] deals with Triticum aestivum. The data set can be described thus: Drug level in winter Triticum aestivum cv. Soisson (wheat) measured after 6 hr in presence of safener cloquintocet-mexyl. Type of data set: ADME, organism-based. The settings on record: in vivo.
A short description of data set [19]: Lipophilicity, log P of the compound at 25 degC. Format: physicochemical. The settings on record: octanol/water.
Data set [20] relates to Avena fatua. Nature of the data set: Drug level in Avena fatua at 0.1 g/l measured after 6 hr in presence of safener cloquintocet-mexyl. Type of data set: ADME, organism-based. Particulars: in vivo.
Data set [21] relates to Hordeum vulgare. The data set can be described thus: Drug level in winter Hordeum vulgare cv. Manitou (barley) at 0.1 g/l measured after 6 hr. Particulars: in vivo. Format: ADME, organism-based.
Data set [22] deals with Avena fatua. Nature of the data set: Drug level in Avena fatua at 0.1 g/l measured after 6 hr. Format: ADME, organism-based. The settings on record: in vivo.
Data set [23] deals with Lolium perenne. Nature of the data set: Drug level in Lolium perenne (perennial ryegrass) measured at 0.1 g/l after 6 hr. Format: ADME, organism-based. The settings on record: in vivo.
For data set [24], the system named is Triticum aestivum. Nature of the data set: Drug level in winter Triticum aestivum cv. Soisson (wheat) measured after 6 hr. Type of data set: ADME, organism-based. Particulars: in vivo.

≈ marks a conversion by molar mass, not a printed value.

The logD is the decadic logarithm of the distribution of all forms, ionised or not, between an organic phase and buffer at a given pH. A word on the solubility: it is the dissolved amount per volume that the medium holds. A higher solubility goes with a readily soluble substance. As usually defined, the pKa is the pH at which an ionisable group is half protonated. The logP is a log measure of how a compound divides between an organic and an aqueous phase. Read a low logP as lower lipophilicity.

Take `CCc1cc(C)cc(CC)c1C1C(=O)N2CCOCN2C1=O` (stereo unspecified): the Activity came out at 0% in the data set on Alopecurus myosuroides; 10% in the data set with Lolium perenne [1]; 10% in the data set with Setaria faberi; 0% in the data set on Hordeum vulgare [2]; 0% in the data set with Triticum aestivum [3]; 40% in the data set with Avena fatua [4].

As for `CCc1cc(C)cc(CC)c1C1C(=O)N2COC(C)CN2C1=O` (stereo unspecified), the Activity in the data set with Alopecurus myosuroides amounted to 40%; in the data set with Lolium perenne [1], 60%; in the data set with Setaria faberi, 90%; in the data set on Hordeum vulgare [2] it was 20%; in the data set with Triticum aestivum [3] it was 10%; in the data set with Avena fatua [4], 100%.

`CCc1cc(C)cc(CC)c1C1C(=O)N2COC(CC)CN2C1=O` (stereo unspecified): the Activity with Alopecurus myosuroides was 90%; in the data set on Lolium perenne [1], 100%; in the data set with Setaria faberi, 90%; in the data set on Hordeum vulgare [2] it was 20%; with Triticum aestivum [3] it was 60%; in the data set on Avena fatua [4], 100%.

Regarding `CCc1cc(C)cc(CC)c1C1C(=O)N2CCC(O)CCN2C1=O`, the Activity in the data set on Alopecurus myosuroides is 100%; in the data set on Lolium perenne [1], 90%; with Setaria faberi it was 90%; in the data set with Hordeum vulgare [2], 40%; in the data set on Triticum aestivum [3], 80%; with Avena fatua [4], 100%.

Consider `CCc1cc(C)cc(CC)c1C1C(=O)N2CCC(C)(O)CCN2C1=O`, for which the Activity in the data set on Alopecurus myosuroides is 100%; with Lolium perenne [1] it was 100%; in the data set on Setaria faberi, 90%; with Hordeum vulgare [2], 90%; in the data set on Triticum aestivum [3] it was 80%; in the data set with Avena fatua [4] it was 80%.

On to `CCc1cc(C)cc(CC)c1C1C(=O)N2CCCOCN2C1=O` (stereo unspecified), for which the Activity in the data set on Alopecurus myosuroides turned out to be 0%; with Lolium perenne [1], 40%; in the data set with Setaria faberi, 10%; in the data set on Hordeum vulgare [2], 0%; with Triticum aestivum [3], 0%; with Avena fatua [4] it was 40%.

As to `CCc1cc(C)cc(CC)c1C1C(=O)N2C(C)COCC(C)N2C1=O` (stereo unspecified), the Activity in the data set on Alopecurus myosuroides was determined as 60%; in the data set with Lolium perenne [1], 40%; in the data set on Setaria faberi it was 80%; with Hordeum vulgare [2], 0%; in the data set on Triticum aestivum [3], 0%; with Avena fatua [4], 50%.

Take `CCc1cc(C)cc(CC)c1C1C(=O)N2CCOC(C)CN2C1=O` (stereo unspecified): the Activity with Alopecurus myosuroides was determined as 60%; with Lolium perenne [1], 90%; with Setaria faberi, 90%; in the data set with Hordeum vulgare [2], 0%; with Triticum aestivum [3] it was 0%; in the data set with Avena fatua [4], 40%.

As for `CCc1cc(C)cc(CC)c1C1C(=O)N2CCOC(CC)CN2C1=O` (stereo unspecified), the Activity in the data set with Alopecurus myosuroides came out at 20%; in the data set with Lolium perenne [1] it was 80%; with Setaria faberi it was 20%; with Hordeum vulgare [2], 0%; with Triticum aestivum [3] it was 0%; in the data set with Avena fatua [4] it was 40%.

As to `CCc1cc(C)cc(CC)c1C1C(=O)N2CC(C)OC(C)CN2C1=O` (stereo unspecified), the Activity in the data set with Alopecurus myosuroides is 50%; with Lolium perenne [1], 80%; in the data set on Setaria faberi, 90%; with Hordeum vulgare [2] it was 0%; in the data set on Triticum aestivum [3] it was 0%; in the data set on Avena fatua [4] it was 90%.

With `CCc1cc(C)cc(CC)c1C1C(=O)N2C[C@H]3CC[C@@H](CN2C1=O)O3` (stereo partly specified), the Activity with Alopecurus myosuroides was 40%; in the data set on Lolium perenne [1], 80%; in the data set on Setaria faberi, 80%; with Hordeum vulgare [2], 0%; in the data set on Triticum aestivum [3] it was 0%; in the data set with Avena fatua [4] it was 80%.

`CCc1cc(C)cc(CC)c1C1C(=O)N2CCOCCN2C1=O` [PINOXADEN DIONE]: the logD in [5] is -1.1; in data set [13], 0.62. In addition, the half-life in [6], in [9], in [10] and in [12] was less than 24 h in each case. In addition, the solubility is 5200 µg/mL (≈ 16.4 mM) in data set [7] and greater than 300000 µg/mL in data set [11]. The compound further yielded a pKa in data set [8] of 3.82. Moreover, the Activity is 100% with Alopecurus myosuroides; 90% with Lolium perenne [1]; 90% in the data set on Setaria faberi; 0% in the data set with Hordeum vulgare [2]; 10% in the data set on Triticum aestivum [3]; 100% in the data set with Avena fatua [4].

In the case of `CCc1cc(C)cc(CC)c1-c1c(OC(=O)C(C)(C)C)n2n(c1=O)CCOCC2` [PINOXADEN], the solubility in data set [14] was found to be 200 µg/mL (≈ 0.499 mM). Also, the Drug uptake with Lolium perenne [15] is recorded as 0%; in the data set with Hordeum vulgare [17], 1.5%; in the data set on Triticum aestivum [18], 0%; in the data set with Avena fatua [20], 0%; in the data set on Hordeum vulgare [21], 2.1%; in the data set with Avena fatua [22], 0%. The Drug uptake with Lolium perenne [23] and with Triticum aestivum [24] was 0% throughout. Also, the half-life in data set [6] was 358 h; in [9], 578 h; in data set [10], 7.2 h; in data set [12] it was 607 h. In addition, the Drug metabolism in the data set with Hordeum vulgare [16] came to 49.6%. In [19], the logP was found to be 3.2.
